We go through five compounds from patent US4938897A (Kureha Kagaku Kogyo Kabushiki Kaisha, priority 1985, dated 1990).

Data set [1] relates to 3T3 SV-40 cells. As to the kind of experiment: Suppression of proliferation of mouse fibroblasts transformed by SV-40 virus (3T3 SV-40), Trypan blue living cell count. Conditions: for Rate of suppression (%): 3T3 SV-40 cells, 5 μg/ml. The class given is cell-based. As for the experimental part:
(§1) The activity of one of the present substances, 3-dansyloxyestradiol-17β-[[4-[p-{bis(2-chloroethyl)amino}phenyl]butyryloxy]]acetate in suppressing the proliferation of (1) the fibroblasts of mouse (3T3) and (2) transformed fibroblasts of mouse by SV-40 virus (3T3 SV-40) was studied by in vitro tests as follows:
(§2) Into a culture medium consisting of 90% by weight of DALBECCO MEM and 10% of bovine foetus serum, a solution of the test substance in dimethylsulfoxide at a rate of 5 μg/ml was added (dimethylsulfoxide being 1% of the culture medium). After adjusting the pH of the three culture media respectively to 6.5, 7.0 and 7.8, the target cells were implanted into each culture medium at a rate of 2×10^4 cells/ml, and the culture media were incubated at 37° C. in an atmosphere of 5% of carbon dioxide for 3 and 6 days. After ending the incubation, the number of living cells which were not dyed with Trypan blue enumerated in the cultured medium to calculate the rate of suppression of the proliferation of the fibroblasts as follows: [formula] where Nc is the number of the living fibroblasts in control group and Nt is the number of living fibroblasts in the test group both in the unit area.
(§3) The activity of one of the present substance, 3-dansyloxyestradiol-17β-[[2-[p-{bis(2-chloroethyl)amino}phenyl]acetoxy]]acetate in suppressing the proliferation of mouse fibroblasts (3T3) and SV-40 virus-transformed fibroblasts (3T3 SV-40) was examined by the same method as in Example 4 except for (1) the days of incubation of 3 and 5 days instead of 3 and 6 days in Example 4 and (2) the pH of the culture medium of 6.7 instead of 6.7, 7.0 and 7.8 in Example 4.

In data set [2] the test system is 3T3 SV-40 cells vs 3T3 cells. Put plainly: Intaking of test substance by 3T3 SV-40 cells compared to 3T3 cells, fluorescence microscope. It counts as cell-based, mouse. As for the experimental part:
Intaking of one of the present substances, 3-dansyloxyestradiol-17β-[[4-[p-{bis(2-chloroethyl)amino}phenyl]butyryloxy]]acetate, by mouse fibroblasts (3T3) and mouse transformed fibroblasts by SV-40 virus (3T3 SV-40) was examined with a fluorescence microscope under the following conditions:
Concentration of the test substance: 10 and 50 μg/ml
pH of culture medium: 6.5 and 7.8
Number of implanted cells: 2×10^4 cells/ml
Temperature and days of incubation: 37° C. for 5 days
Fixation: by aqueous 2.5% glutaraldehyde phosphate buffer for 90 minutes
Examination: by using a microscope (made by Olympus, BHS-RFK) with an exciting filter UGI and auxiliary absorption filter Y-475.
In the similar manner to that in Example 6, intaking of one of the present substances, 3-dansyloxyestradiol-17β-[[2-[p-{bis(2-chloroethyl)amino}phenyl]acetoxy]]acetate by mouse fibroblast (3T3) and mouse transformed fibroblast by SV-40 virus (3T3 SV-40) was studied.

The subject of data set [3] is 3T3 cells. As to the kind of experiment: Suppression of proliferation of mouse fibroblasts (3T3), Trypan blue living cell count. As to conditions: 5 μg/ml. It counts as cell-based. As for the experimental part: as §1, §2, §3
Data set [4] in a line: Fluorescent determination (emission wave length). It counts as physicochemical. As to conditions: for emitted light wave length: ethyl acetate. The source says: As a result of fluorescent determination at a wave length of excitation light of 356 nm, the emitted light of 520 nm in wave length with ethyl acetate was observed.
As a result of fluorescent determination at a wave length of excitation light of 357 nm, the emitted light of 525 nm in wave length of this substance with ethyl acetate was observed.
Onto a chromatographic column prepared by filling 400 g of silica gel (made by Merck Co. under the name of Art 7734) into a glass tube of 36 mm in inner diameter and 865 mm in length by using chloroform, a solution of 12 g of the crude product dissolved in 50 ml of chloroform was charged, and the absorbed product was subjected to elution by a flow of chloroform at a flow rate of 7 ml/min, thereby 1400 ml of a fraction showing one spot on the chromatogram were obtained. By condensing the fraction, 9 g of wet product were obtained. The wet product was dissolved in 30 ml of chloroform, and after adding 50 ml of hexane to the prepared solution, the mixture was cooled while stirring thereof, however, since no crystal was precipitated therefrom, the solvent was distilled off therefrom by using an evaporator and the residue was dried under vacuum to obtain 7 g of a solid, fluorescent substance in a yield of 68.2%. […] Its emission fluorescence was 521 nm by the excitation light of 358 nm.

Data set [5] concerns FLOW 4000 cell. Put plainly: Suppression of proliferation of human normal renal cells (FLOW 4000). It counts as cell-based. Conditions: 5 μg/ml, 37° C. As for the experimental part: as §2
(§4) The activity of one of the present substance, 3-dansyloxyestradiol-17β-[[4-[p-{bis(2-chloroethyl)amino}phenyl]butyryloxy]]acetate, in suppressing the proliferation of (1) human nomal renal cells (FLOW 4000) and (2) human renal cancer cells (RC) was examined as follows:
(§5) Into the same culture medium as in Example 4, a solution of the test substance dissolved in dimethylsulfoxide was added at a rate of 5 μg/ml (dimethylsulfoxide being 1% of the culture medium), and after adjusting the three culture media respectively to pH of 6.5, 7.0 and 7.8, the cells were implanted into each culture medium at a rate of 2×10^4 cells/ml, and the culture media implanted were incubated for 6 days at 37° C. in an atmosphere of 5% of carbon dioxide. The rate of suppression of the proliferation of the implanted cells was calculated by the same formula as in Example 4, the results being shown in Table 2.

Data set [6] concerns RC cell. As to the kind of experiment: Suppression of proliferation of human renal cancer cells (RC). It counts as cell-based. As to conditions: 5 μg/ml, 37° C.; for Rate of suppression (%): RC cell. As to the method: as §2, §4, §5
The subject of data set [7] is human renal cancer cells (RC) vs normal human renal cells (FLOW 4000). Put plainly: Intaking of test substance by RC cells compared to FLOW 4000 cells, fluorescence microscope. It counts as cell-based. As to conditions: Example 8; 37° and 40° C. incubation. As to the method:
In the similar manner to that in Example 7, intaking of one of the present substances, 3-dansyloxyestradiol-17β-[[4-[p-{bis(2-chloroethyl)amino}phenyl]butyryloxy]]acetate by the normal human renal cells (FLOW 4000) and the human renal cancer cells (RC) was examined by using the same fluorescence microscope as in Example 7. The incubation of the implanted cells was carried out at 37° and 40° C.

Data set [8] has as its system mouse. Conditions: for reference; cited from earlier work.
Where [9] appears, read: pH 6.7, 3 days, 37° C. (Example 6).
[10] abbreviates: pH 6.7, 5 days, 37° C. (Example 6).

Each structure is given as a SMILES string.

With `CN(C)c1cccc2c(S(=O)(=O)Oc3ccc4c(c3)CC[C@@H]3[C@@H]4CC[C@]4(C)[C@@H](OC(=O)COC(=O)Cc5ccc(N(CCCl)CCCl)cc5)CC[C@@H]34)cccc12` [3-Dansyloxyestradiol-17β-[[2-[p-{bis(2-chloroethyl)amino}phenyl]acetoxy]]acetate], the “Rate of suppression (%)” value in data set [1] (setting [9]) is 55.72%; in data set [1] (setting [10]) it was 85.86%; in data set [3] (setting [9]), 25.24%; in data set [3] (setting [10]), 53.28%. For the same compound, the “Intaking of the test substance by 3T3 SV-40 compared to 3T3” value in data set [2] (Example 9, FIG. 8: 5 μg/ml, pH 6.5, 4 days) is on record as “remarkable as compared to that by 3T3”.
For the compound `CN(C)c1cccc2c(S(=O)(=O)Oc3ccc4c(c3)CC[C@@H]3[C@@H]4CC[C@]4(C)[C@H](OC(=O)COC(=O)CCCc5ccc(N(CCCl)CCCl)cc5)CC[C@@H]34)cccc12` [3-dansyloxyestradiol-17α-[[4-[p-{bis(2-chloroethyl)amino}phenyl]butyryloxy]]acetate], in data set [4] (excitation light 357 nm), the “emitted light wave length” value is reported as 525 nm.
Take `CN(C)c1cccc2c(S(=O)(=O)Oc3ccc4c(c3)CC[C@@H]3[C@@H]4CC[C@]4(C)[C@@H](OC(=O)COC(=O)c5ccc(N(CCCl)CCCl)cc5)CC[C@@H]34)cccc12` [3-dansyloxyestradiol-17β-[[1-[p-{bis(2-chloroethyl)amino}phenyl]carbonyloxy]]acetate]: in data set [4] (excitation light 358 nm), the emission fluorescence was found to be 521 nm.
As to `CN(C)c1cccc2c(S(=O)(=O)Oc3ccc4c(c3)CC[C@@H]3[C@@H]4CC[C@]4(C)[C@@H](OC(=O)COC(=O)CCCc5ccc(N(CCCl)CCCl)cc5)CC[C@@H]34)cccc12` [3-dansyloxyestradiol-17β-[[4-[p-{bis(2-chloroethyl)amino}phenyl]butyryloxy]]acetate], the “Rate of suppression (%)” value was 27.83% in data set [5] (pH 6.5, 6 days); 14.00% in data set [5] (pH 7.0, 6 days); -1.10% in data set [5] (pH 7.8, 6 days); 64.19% in data set [1] (pH 6.5, 3 days, 37° C.); 91.60% in data set [1] (pH 6.5, 6 days, 37° C.); 55.80% in data set [1] (pH 7.0, 3 days, 37° C.). In addition, the “Rate of suppression (%)” value stood at 85.88% in data set [1] (pH 7.0, 6 days, 37° C.); 31.60% in data set [1] (pH 7.8, 3 days, 37° C.); 38.80% in data set [1] (pH 7.8, 6 days, 37° C.); 54.54% in data set [6] (pH 6.5, 6 days); 46.68% in data set [6] (pH 7.0, 6 days); 22.39% in data set [6] (pH 7.8, 6 days). Besides, the “Rate of suppression (%)” value in data set [3] (pH 6.5, 3 days, 37° C.) worked out at 16.8%; in data set [3] (pH 6.5, 6 days, 37° C.) it was 14.76%; in data set [3] (pH 7.0, 3 days, 37° C.) it was 6.45%; in data set [3] (pH 7.0, 6 days, 37° C.), 20.03%; in data set [3] (pH 7.8, 3 days, 37° C.), 7.87%; in data set [3] (pH 7.8, 6 days, 37° C.) it was 11.30%. For the same compound, the “activity of suppressing the proliferation of transformed cells by SV-40 virus (in words)” value in data set [1] (Example 4, pH range of from 6.5 to 7.8, 5 μg/ml) is listed as “clearly showed an activity of suppressing the proliferation of transformed cells by SV-40 virus”. Moreover, in data set [6] (Example 5, 6 days), the “suppression of the proliferation of human renal cancer cells (RC) (in words)” value is recorded as “clearly suppressed the proliferation of the human renal cancer cells (RC)”. Further, the “Intaking of the test substance by RC cells compared to FLOW 4000 cells” value in data set [7] is “remarkable as compared to that by the normal human cells (FLOW 4000) at both 37° and 40 °C”. Moreover, the “Intaking of the test substance by 3T3 SV-40 cells compared to 3T3 cells” value in data set [2] (Example 7, 10 and 50 μg/ml, pH 6.5 and 7.8, 37° C., 5 days) is on record as “remarkably recognized as compared to that by 3T3 cells”. Further, the “emitted light wave length” value in data set [4] (excitation light 356 nm) turned out to be 520 nm.
`O=C(O)CCCc1ccc(N(CCCl)CCCl)cc1` [chlorambucil]: the LD50 in data set [8] was 20 mg/kg body weight.
